Results on 28 compounds are retold here after US5922719A, “Coumarin dopamine D4 receptor antagonists” (priority 1997, dated 1999).

The Ki is a measure of affinity in units of concentration, obtained from inhibition or displacement.

Counter-ions that a name gives are not always drawn. Like-named read-outs stand apart in the source and are kept apart here.

Experiment [1] addresses T1, human recombinant dopamine D4.2 receptor (Homo sapiens, UniProt P21917, DEL265-296).
T1 construct: expressed in transfected cells
T1 sequence (P21917 with tags, fused parts or gaps DEL265-296): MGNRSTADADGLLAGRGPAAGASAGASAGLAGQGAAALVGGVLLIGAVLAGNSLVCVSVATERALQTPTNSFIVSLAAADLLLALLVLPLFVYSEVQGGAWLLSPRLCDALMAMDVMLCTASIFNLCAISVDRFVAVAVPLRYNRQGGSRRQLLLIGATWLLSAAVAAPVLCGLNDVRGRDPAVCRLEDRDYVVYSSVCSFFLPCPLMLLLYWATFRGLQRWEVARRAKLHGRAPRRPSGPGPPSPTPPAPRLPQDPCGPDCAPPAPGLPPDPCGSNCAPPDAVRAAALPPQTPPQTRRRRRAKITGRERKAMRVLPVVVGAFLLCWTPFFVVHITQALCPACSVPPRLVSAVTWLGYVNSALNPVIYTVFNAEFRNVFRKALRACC
The experiment is described as follows: [3H]spiperone receptor binding assay, D4.2 (CHO K1 membranes). Conditions: [3H]spiperone 0.2 nM, human D4.2, CHO K1 membranes, 60 minutes at 25° C. From the text:
(§1) A cell line expressing human dopamine D2 (Long form) receptors was purchased from Oregon Health Sciences University, Portland, Ore. The D2 receptor cDNA was subcloned into an expression vector, pRc/CMV. The plasmids were transfected by electroporation into CHO K1 cells. A single stable transfectant, resistant to the antibiotic G418, was isolated and selected for use in the binding studies. For D4 binding, CHO K1 cells stably transfected to express the human recombinant dopamine D4.2 receptor subtype, as described by Shih, et al., "The expression and functional characterization of human dopamine D4.2 receptor in CHO K1 cells," Soc.
(§2) Cells were grown until confluent, after which growth medium was removed and replaced with 0.02% ethylene diamine tetracetate (EDTA) in a phosphate-buffered saline solution (Sigma Chemical Co; St. Louis, Mo.) and scraped from the flasks. The cells were centrifuged at about 1000×g for 10 minutes at 40° C. and then resuspended in TEM buffer (25 mM Tris-HCL, pH 7.4, 5 mM EDTA, and 6 mM MgCl2) for D2 or the D4.2 buffer (50 mM Tris-HCl, pH 7.4, 5 mM EDTA, 1.5 mM CaCl2, 5 mM KCl, and 120 mM NaCl) and homogenized. The membranes were pelleted by centrifugation at 20,000×g at 40° C. for 20 minutes. Then the pellets were resuspended in an appropriate buffer at 1 mL/flask and stored at -70° C. until used in the receptor binding assay.
After 60 minutes incubation at 25° C., the incubations were terminated by rapid filtration through Whatmann GF/B glass fibre filters (soaked for 1 hour in 0.5% polyethylenimine) on a -cell harvester, with three washes of 1 mL ice-cold buffer. […] Nonspecific binding was defined in presence of 1 mM of haloperidol.
(§3) Saturation and competition binding data were analyzed using an iterative nonlinear least-square curve-fitting Ligand program. […] Experimental compounds were made up as stock solutions in dimethyl sulfoxide (DMSO). […] Each observation was carried out in triplicate. To allow these calculations, Kd values were measured for the interaction of various ligands with the receptor. […]

In experiment [2] the target is human dopamine D2 (Long form) receptor (Homo sapiens, UniProt P14416). Description: [3H]spiperone receptor binding assay, D2 (Long form) (CHO K1 membranes). Particulars: [3H]spiperone 0.2 nM, human D2 (Long form), CHO K1 membranes, 60 minutes at 25° C.; read-out: D2 Ki.
Chain of human dopamine D2 (Long form) receptor (P14416 whole entry): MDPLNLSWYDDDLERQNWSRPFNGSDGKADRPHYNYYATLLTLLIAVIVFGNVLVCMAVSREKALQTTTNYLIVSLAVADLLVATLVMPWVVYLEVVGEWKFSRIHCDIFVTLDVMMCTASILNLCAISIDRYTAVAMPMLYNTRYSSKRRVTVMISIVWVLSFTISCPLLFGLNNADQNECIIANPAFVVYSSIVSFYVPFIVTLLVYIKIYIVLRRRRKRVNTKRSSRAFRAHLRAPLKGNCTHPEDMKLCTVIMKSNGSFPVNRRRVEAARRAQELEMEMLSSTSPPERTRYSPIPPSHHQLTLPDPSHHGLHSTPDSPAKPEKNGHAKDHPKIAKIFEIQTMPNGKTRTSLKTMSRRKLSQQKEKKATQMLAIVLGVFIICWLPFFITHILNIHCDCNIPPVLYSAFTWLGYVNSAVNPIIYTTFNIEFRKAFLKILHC
Source text: as §1, with “Soc. Neurosci., 1995;21(Part 1):621.” for “Soc.”
as §2, with “CHO K1 cells expressing either human D2 and D4.2 receptors were grown in 162 cm^2 culture flasks in F12 medium (Gibco Laboratories, Grand Island, N.Y.) supplemented with 10% fetal bovine serum (FBS, Hyclone, Logan, UT) in an atmosphere of 5% Co2 /95% air at 37° C. Cells” for “Cells”
After 60 minutes incubation at 25° C., the incubations were terminated by rapid filtration through Whatmann GF/B glass fibre filters (soaked for 1 hour in 0.5% polyethylenimine) on a -cell harvester, with three washes of 1 mL ice-cold buffer. Individual filter disks containing the bound ligand were placed in counting vials with 4 mL of scintillation fluid (Ready Gel, Beckman Instrument Inc, Fullerton, Calif.) and then counted in a Beckman LS-6800 liquid scintillation counter at an efficiency of 45%. Nonspecific binding was defined in presence of 1 mM of haloperidol.
as §3

Take `O=c1ccc2ccc(CN3CCN(c4cccc(F)c4)CC3)cc2o1` [Example 22, 7-[4-(3-Fluoro-phenyl)-piperazin-1-ylmethyl]-chromen-2-one]: the Ki in experiment [1] (read-out: D4 Ki) is 44 nM; in experiment [2], 4020 nM.
The corresponding values for `O=c1ccc2ccc(CN3CCN(c4cccc(Cl)c4Cl)CC3)cc2o1` [Example 21, 7-[4-(2,3-Dichloro-phenyl)-piperazin-1-ylmethyl]-chromen-2-one] are 41.1 nM and 1840 nM.
With `Cc1cccc(N2CCN(Cc3ccc4oc(=O)ccc4c3)CC2)c1` [Example 49, 6-(4-m-Tolyl-piperazin-1-ylmethyl)-chromen-2-one], the Ki in experiment [1] (D4 Ki) turned out to be 74 nM.
For the compound `O=c1ccc2ccc(CN3CCN(c4ccccc4F)CC3)cc2o1` [Example 18, 7-[4-(2-Fluoro-phenyl)-piperazin-1-ylmethyl]-chromen-2-one], the Ki in experiment [1] (read-out: D4 Ki) came out at 33 nM; in experiment [2] it was 1000 nM.
As to `O=c1ccc2ccc(CN3CCN(c4ccc5ccccc5c4)CC3)cc2o1` [Example 23, 7-(4-Naphthalen-2-yl-piperazin-1-ylmethyl)-chromen-2-one], the Ki in experiment [1] (read-out: D4 Ki) stood at 49.7 nM.
Take `O=c1ccc2cc(CN3CCN(c4ccccn4)CC3)ccc2o1` [Example 44, 2H-1-Benzopyran-2-one, 6-[[4-(2-pyridinyl)-1-piperazinyl]methyl]-, dihydrochloride]: the Ki came out at 29.7 nM in experiment [1] (read-out: D4 Ki) and 2170 nM in experiment [2].
As for `O=c1ccc2cc(CN3CCN(c4ccc(CO)c(Cl)c4)CC3)ccc2o1` [Example 38, 6-[4-(3-Chloro-4-hydroxymethyl-phenyl)-piperazin-1-ylmethyl]-chromen-2-one], the Ki in experiment [1] (read-out: D4 Ki) came to 13 nM; in experiment [2] it was 7290 nM.
The corresponding values for `O=c1ccc2ccc(CN3CCN(c4ccc(F)c(C(F)(F)F)c4)CC3)cc2o1` [Example 15, 7-[4-(4-Fluoro-3-trifluoromethyl-phenyl)-piperazin-1-ylmethyl]-chromen-2-one] are 27.3 nM and 7120 nM.
For the compound `Cc1cccc(N2CCN(Cc3ccc4oc(=O)ccc4c3)CC2)c1C` [Example 35, 6-[4-(2,3-Dimethyl-phenyl)-piperazin-1-ylmethyl]-chromen-2-one], the results for the Ki in experiment [1] (read-out: D4 Ki) and in experiment [2] were 8.8 nM and 3250 nM, respectively.
The corresponding values for `Cc1cccc(N2CCN(Cc3ccc4ccc(=O)oc4c3)CC2)c1Cl` [Example 20, 7-[4-(2-Chloro-3-methyl-phenyl)-piperazin-1-ylmethyl]-chromen-2-one] are 40 nM and 5880 nM.
Take `O=c1ccc2cc(CN3CCN(c4ncccn4)CC3)ccc2o1` [Example 50, 2H-1-Benzopyran-2-one, 6-[[4-(2-pyrimidinyl)-1-piperazinyl]methyl]-]: the Ki in experiment [1] (read-out: D4 Ki) was 163 nM.
For the compound `O=c1ccc2cc(CN3CCN(c4cccc(Cl)c4Cl)CC3)ccc2o1` [Example 45], the Ki in experiment [1] (read-out: D4 Ki) stood at 41 nM.
With `COc1cccc(N2CCN(Cc3ccc4oc(=O)ccc4c3)CC2)c1` [Example 47, 6-[4-(3-Methoxy-phenyl)-piperazin-1-ylmethyl]-chromen-2-one], the results for the Ki in experiment [1] (read-out: D4 Ki) and in experiment [2] were 57 nM and 7120 nM, respectively.
Turning to `O=c1ccc2ccc(CN3CCN(Cc4ccccc4)CC3)cc2o1` [Example 30, 7-(4-Benzyl-piperazin-1-ylmethyl)-chromen-2-one], the Ki in experiment [1] (D4 Ki) came out at 2660 nM.
With `Cc1cccc(N2CCN(Cc3ccc4ccc(=O)oc4c3)CC2)c1` [Example 17, 7-(4-m-Tolyl-piperazin-1-ylmethyl)-chromen-2-one], the Ki is 32 nM in experiment [1] (D4 Ki) and 4400 nM in experiment [2].
As for `O=c1ccc2ccc(CN3CCN(c4ccc(Cl)cc4)CC3)cc2o1` [Example 28, 7-[4-(4-Chloro-phenyl)-piperazin-1-ylmethyl]-chromen-2-one], in experiment [1] (read-out: D4 Ki), the Ki was determined as 93 nM.
Regarding `O=c1ccc2ccc(CN3CCN(c4ccc(F)cc4)CC3)cc2o1` [Example 24, 7-[4-(4-Fluoro-phenyl)-piperazin-1-ylmethyl]-chromen-2-one], the Ki in experiment [1] (D4 Ki) was found to be 59 nM.
On the same count and under the same terms, the result for `O=c1ccc2ccc(CN3CCC(c4ccccc4)CC3)cc2o1` [Example 7, 7-(4-Phenyl-piperidin-1-ylmethyl)-chromen-2-one] reads 18 nM.
`O=c1ccc2ccc(CN3CCN(c4ncccn4)CC3)cc2o1` [Example 32, 2H-1-Benzopyran-2-one, 7-[[4-(2-pyrimidinyl)-1-piperazinyl]methyl]-, dihydrochloride]: the Ki in experiment [1] (read-out: D4 Ki) was 5000 nM.
Turning to `COc1ccc(N2CCN(Cc3ccc4ccc(=O)oc4c3)CC2)cc1` [Example 26, 7-[4-(4-Methoxy-phenyl)-piperazin-1-ylmethyl]-chromen-2-one], the Ki in experiment [1] (D4 Ki) came out at 75 nM.
Take `O=c1ccc2ccc(CN3CCN(c4ccc(CO)c(Br)c4)CC3)cc2o1` [Example 19, 7-[4-(3-Bromo-4-hydroxymethyl-phenyl)-piperazin-1-ylmethyl]-chromen-2-one]: in experiment [1] (read-out: D4 Ki), the Ki is 39.5 nM.
On the same count and under the same terms, to `Cc1ccc(C2CCN(Cc3ccc4ccc(=O)oc4c3)CC2)cc1` [Example 12, 7-(4-p-Tolyl-piperidin-1-ylmethyl)-chromen-2-one] belongs 25.7 nM; to `COc1cc(N2CCN(Cc3ccc4ccc(=O)oc4c3)CC2)cc(OC)c1OC` [Example 31, 7-[4-(3,4,5-Trimethoxy-phenyl)-piperazin-1-ylmethyl]-chromen-2-one], > 2000 nM.
Still for that read-out and setting: to `Cc1c(Cl)cccc1N1CCN(Cc2ccc3ccc(=O)oc3c2)CC1` [Example 29, 7-[4-(3-Chloro-2-methyl-phenyl)-piperazin-1-ylmethyl]-chromen-2-one] belongs 128 nM.
Still for that read-out and setting: to `CCCSc1cccc(N2CCN(Cc3ccc4ccc(=O)oc4c3)CC2)c1` [Example 27, 7-[4-(3-Propylsulfanyl-phenyl)-piperazin-1-ylmethyl]-chromen-2-one] belongs 91 nM; to `COc1cc(N2CCN(Cc3ccc4oc(=O)ccc4c3)CC2)cc(OC)c1OC` [Example 51, 6-[4-(3,4,5-Trimethoxy-phenyl)-piperazin-1-ylmethyl]-chromen-2-one], 316 nM.
Turning to `O=c1ccc2cc(CN3CCN(c4ccc(F)cc4)CC3)ccc2o1` [Example 46, 6-[4-(4-Fluoro-phenyl)-piperazin-1-ylmethyl]-chromen-2-one], in experiment [1] (read-out: D4 Ki), the Ki is 41 nM.
Still for that read-out and setting: the result for `O=c1ccc2ccc(CN3CCN(c4ccc(CO)c(F)c4)CC3)cc2o1` [Example 16, 7-[4-(3-Fluoro-4-hydroxymethyl-phenyl)-piperazin-1-ylmethyl]-chromen-2-one] reads 29.9 nM.
